Source: ChEMBL document CHEMBL1145498, “A systematic interaction map of validated kinase inhibitors with Ser/Thr kinases” (Proc Natl Acad Sci U S A, 2007)

Assays:
[1] = target: Calcium/calmodulin-dependent protein kinase type II subunit beta (Homo sapiens) (UniProt Q13554)
[2] = target: T1, Calcium/calmodulin-dependent protein kinase type IV (Homo sapiens) (UniProt Q16566)
T1 sequence (whole entry): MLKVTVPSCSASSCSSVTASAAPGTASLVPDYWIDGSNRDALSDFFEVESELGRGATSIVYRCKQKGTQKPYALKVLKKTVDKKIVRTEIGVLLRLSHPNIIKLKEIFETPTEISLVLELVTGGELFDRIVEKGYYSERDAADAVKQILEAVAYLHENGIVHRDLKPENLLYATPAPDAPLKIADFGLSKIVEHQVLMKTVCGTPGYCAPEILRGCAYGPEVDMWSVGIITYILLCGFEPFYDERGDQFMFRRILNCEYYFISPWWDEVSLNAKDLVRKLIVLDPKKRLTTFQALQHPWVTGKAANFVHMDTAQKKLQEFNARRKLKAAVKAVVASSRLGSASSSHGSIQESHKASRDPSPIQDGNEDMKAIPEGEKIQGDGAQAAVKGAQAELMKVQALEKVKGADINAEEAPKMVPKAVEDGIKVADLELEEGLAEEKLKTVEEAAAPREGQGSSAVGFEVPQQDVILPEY

[3] = target: Cyclin-dependent kinase 6 (Homo sapiens) (UniProt Q00534)
[4] = target: Cyclin-dependent kinase-like 1 (Homo sapiens) (UniProt Q00532)
[5] = target: Dual specificity protein kinase CLK1 (Homo sapiens) (UniProt P49759)
[6] = target: Dual specificity protein kinase CLK3 (Homo sapiens) (UniProt P49761)
[7] = target: Casein kinase I isoform gamma-3 (Homo sapiens) (UniProt Q9Y6M4)
[8] = target: Mitogen-activated protein kinase 11 (Homo sapiens, UniProt Q15759)
[9] = target: Mitogen-activated protein kinase 6 (Homo sapiens) (UniProt Q16659)
[10] = target: Serine/threonine-protein kinase 26 (Homo sapiens) (UniProt Q9P289)
[11] = target: Serine/threonine-protein kinase PAK 4 (Homo sapiens) (UniProt O96013)
[12] = target: Serine/threonine-protein kinase pim-2 (Homo sapiens, UniProt Q9P1W9)
[13] = target: T2, Serine/threonine-protein kinase PLK4 (Homo sapiens) (UniProt O00444)
T2 sequence (whole entry): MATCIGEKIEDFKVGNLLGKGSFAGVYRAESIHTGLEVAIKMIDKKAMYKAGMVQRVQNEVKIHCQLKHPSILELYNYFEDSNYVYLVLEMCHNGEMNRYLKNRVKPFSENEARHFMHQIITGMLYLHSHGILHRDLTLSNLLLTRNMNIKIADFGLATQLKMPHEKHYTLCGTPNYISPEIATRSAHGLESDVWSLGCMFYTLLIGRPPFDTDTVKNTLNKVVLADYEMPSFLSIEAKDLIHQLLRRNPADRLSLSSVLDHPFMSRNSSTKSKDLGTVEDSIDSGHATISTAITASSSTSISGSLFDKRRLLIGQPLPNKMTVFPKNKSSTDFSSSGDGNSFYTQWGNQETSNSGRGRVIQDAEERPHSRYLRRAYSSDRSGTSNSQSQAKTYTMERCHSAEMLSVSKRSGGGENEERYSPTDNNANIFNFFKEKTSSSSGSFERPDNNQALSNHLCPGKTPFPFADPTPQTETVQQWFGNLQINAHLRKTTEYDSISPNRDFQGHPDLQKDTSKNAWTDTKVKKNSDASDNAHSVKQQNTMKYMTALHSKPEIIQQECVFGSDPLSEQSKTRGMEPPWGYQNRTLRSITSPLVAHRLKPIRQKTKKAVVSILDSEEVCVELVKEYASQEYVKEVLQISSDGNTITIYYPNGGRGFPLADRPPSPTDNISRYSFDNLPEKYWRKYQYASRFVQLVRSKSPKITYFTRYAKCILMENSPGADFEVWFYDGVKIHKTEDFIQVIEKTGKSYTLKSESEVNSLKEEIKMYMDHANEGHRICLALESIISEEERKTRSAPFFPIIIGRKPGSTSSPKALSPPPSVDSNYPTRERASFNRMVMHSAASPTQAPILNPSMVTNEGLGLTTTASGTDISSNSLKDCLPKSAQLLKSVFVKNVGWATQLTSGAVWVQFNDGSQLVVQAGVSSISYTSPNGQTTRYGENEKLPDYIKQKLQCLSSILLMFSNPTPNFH

[14] = target: Ribosomal protein S6 kinase alpha-3 (Homo sapiens) (UniProt P51812)
[15] = target: Serine/threonine-protein kinase 16 (Homo sapiens) (UniProt O75716)
[16] = target: Serine/threonine-protein kinase 38 (Homo sapiens) (UniProt Q15208)
[17] = target: Serine/threonine-protein kinase VRK2 (Homo sapiens) (UniProt Q86Y07)
[18] = target: T3, Serine/threonine-protein kinase VRK3 (Homo sapiens) (UniProt Q8IV63)
T3 sequence (whole entry): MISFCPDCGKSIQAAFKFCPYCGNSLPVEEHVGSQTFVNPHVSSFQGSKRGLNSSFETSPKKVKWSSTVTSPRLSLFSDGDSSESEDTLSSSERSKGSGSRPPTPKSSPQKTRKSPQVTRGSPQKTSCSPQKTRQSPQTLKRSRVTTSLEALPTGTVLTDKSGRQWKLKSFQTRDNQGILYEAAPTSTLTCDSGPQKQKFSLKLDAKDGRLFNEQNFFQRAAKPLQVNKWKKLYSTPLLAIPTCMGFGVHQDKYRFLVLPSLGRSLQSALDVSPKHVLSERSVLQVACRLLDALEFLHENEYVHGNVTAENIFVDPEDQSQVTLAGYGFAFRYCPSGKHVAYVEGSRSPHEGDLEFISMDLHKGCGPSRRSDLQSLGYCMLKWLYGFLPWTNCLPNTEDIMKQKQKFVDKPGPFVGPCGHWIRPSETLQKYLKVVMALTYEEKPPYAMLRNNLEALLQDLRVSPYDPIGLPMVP

Chain of Serine/threonine-protein kinase 26 (Homo sapiens) (Q9P289 2-416 limits assumed): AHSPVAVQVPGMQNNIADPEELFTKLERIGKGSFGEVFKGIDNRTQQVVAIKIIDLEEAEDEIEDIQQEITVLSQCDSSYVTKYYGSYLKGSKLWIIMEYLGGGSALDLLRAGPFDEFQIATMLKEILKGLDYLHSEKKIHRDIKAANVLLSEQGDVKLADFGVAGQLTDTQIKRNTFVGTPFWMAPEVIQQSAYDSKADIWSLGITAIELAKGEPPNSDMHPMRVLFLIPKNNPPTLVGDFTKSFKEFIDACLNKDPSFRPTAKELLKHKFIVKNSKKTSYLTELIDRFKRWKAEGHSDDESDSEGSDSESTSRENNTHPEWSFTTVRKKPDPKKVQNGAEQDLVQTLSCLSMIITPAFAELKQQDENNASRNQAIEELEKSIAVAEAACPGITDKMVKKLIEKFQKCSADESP
Chain of Ribosomal protein S6 kinase alpha-3 (Homo sapiens) (P51812 whole entry): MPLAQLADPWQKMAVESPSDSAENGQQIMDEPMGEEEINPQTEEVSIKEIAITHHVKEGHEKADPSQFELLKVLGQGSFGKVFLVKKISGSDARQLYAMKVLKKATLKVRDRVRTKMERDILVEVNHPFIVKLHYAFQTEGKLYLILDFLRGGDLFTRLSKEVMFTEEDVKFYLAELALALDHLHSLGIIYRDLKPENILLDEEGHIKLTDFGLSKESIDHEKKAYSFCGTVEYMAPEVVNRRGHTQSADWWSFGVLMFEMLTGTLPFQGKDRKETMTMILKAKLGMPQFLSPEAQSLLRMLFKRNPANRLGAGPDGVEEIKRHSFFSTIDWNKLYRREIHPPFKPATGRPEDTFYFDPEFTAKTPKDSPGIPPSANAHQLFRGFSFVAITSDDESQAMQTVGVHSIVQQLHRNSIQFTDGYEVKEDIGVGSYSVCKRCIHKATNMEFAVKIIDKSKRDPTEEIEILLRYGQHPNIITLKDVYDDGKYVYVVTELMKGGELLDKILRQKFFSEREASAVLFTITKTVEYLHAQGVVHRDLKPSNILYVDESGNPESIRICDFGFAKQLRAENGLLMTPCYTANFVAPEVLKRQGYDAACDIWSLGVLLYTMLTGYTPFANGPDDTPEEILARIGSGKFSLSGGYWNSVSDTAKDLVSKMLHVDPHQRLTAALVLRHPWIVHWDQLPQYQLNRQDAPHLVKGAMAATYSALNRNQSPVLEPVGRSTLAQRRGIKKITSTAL
Chain of Mitogen-activated protein kinase 11 (Q15759 whole entry): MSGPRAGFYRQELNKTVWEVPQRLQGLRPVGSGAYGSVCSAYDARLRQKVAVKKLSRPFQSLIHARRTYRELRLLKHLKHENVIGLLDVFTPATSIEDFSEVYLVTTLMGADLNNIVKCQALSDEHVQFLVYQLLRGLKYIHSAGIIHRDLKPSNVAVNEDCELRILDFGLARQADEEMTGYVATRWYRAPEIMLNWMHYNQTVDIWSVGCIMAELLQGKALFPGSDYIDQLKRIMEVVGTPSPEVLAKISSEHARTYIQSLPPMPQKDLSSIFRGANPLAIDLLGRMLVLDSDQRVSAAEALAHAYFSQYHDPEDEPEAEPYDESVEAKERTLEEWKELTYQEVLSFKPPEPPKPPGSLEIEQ
Chain of Mitogen-activated protein kinase 6 (Homo sapiens) (Q16659 whole entry): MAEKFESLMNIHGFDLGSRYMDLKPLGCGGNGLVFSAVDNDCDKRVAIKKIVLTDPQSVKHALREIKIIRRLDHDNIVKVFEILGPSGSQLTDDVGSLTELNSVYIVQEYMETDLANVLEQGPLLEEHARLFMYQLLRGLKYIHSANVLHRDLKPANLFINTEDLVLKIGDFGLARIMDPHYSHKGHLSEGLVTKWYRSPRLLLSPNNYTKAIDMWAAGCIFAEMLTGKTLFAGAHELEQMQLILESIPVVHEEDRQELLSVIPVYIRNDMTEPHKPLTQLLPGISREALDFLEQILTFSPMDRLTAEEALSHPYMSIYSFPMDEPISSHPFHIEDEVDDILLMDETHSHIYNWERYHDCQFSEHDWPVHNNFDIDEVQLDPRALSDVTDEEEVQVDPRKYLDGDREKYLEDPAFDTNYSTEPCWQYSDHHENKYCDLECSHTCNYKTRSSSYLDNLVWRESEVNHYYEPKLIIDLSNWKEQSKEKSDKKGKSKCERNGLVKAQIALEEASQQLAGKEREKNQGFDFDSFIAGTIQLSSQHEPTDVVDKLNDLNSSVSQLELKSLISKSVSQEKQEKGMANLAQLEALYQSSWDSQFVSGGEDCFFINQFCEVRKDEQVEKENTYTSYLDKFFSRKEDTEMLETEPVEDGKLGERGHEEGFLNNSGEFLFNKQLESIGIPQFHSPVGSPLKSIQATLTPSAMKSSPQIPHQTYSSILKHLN
Chain of Serine/threonine-protein kinase pim-2 (Q9P1W9 whole entry, looked up): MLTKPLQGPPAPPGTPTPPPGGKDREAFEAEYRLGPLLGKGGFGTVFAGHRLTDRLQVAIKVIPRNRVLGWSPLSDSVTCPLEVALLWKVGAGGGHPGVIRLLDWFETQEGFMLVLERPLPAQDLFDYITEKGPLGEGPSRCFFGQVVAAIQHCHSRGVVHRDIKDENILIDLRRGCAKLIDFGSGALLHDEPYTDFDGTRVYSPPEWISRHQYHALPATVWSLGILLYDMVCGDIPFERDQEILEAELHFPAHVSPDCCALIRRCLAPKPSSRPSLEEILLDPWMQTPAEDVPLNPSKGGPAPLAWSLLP
Chain of Serine/threonine-protein kinase 38 (Homo sapiens) (Q15208 2-465 limits assumed): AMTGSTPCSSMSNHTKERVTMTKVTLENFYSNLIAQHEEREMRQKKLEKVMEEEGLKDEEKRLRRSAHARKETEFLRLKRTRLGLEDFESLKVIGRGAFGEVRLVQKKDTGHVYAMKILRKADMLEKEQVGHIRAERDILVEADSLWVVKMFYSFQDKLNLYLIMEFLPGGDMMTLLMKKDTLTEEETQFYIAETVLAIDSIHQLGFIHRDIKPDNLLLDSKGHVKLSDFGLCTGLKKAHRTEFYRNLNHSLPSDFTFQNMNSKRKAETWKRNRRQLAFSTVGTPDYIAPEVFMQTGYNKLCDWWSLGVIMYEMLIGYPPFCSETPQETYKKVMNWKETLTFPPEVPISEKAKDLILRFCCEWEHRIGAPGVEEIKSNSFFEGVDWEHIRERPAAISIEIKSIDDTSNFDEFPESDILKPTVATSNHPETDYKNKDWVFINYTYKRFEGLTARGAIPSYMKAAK
Chain of Cyclin-dependent kinase 6 (Homo sapiens) (Q00534 whole entry): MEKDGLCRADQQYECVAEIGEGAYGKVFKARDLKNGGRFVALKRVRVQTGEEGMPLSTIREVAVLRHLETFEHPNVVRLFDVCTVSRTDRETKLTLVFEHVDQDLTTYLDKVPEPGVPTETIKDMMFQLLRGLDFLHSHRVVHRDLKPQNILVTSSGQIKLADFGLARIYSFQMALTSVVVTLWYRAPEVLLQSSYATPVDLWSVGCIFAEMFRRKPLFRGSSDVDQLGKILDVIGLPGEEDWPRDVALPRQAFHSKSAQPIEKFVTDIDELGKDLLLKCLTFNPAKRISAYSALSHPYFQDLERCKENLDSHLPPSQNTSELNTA
Chain of Casein kinase I isoform gamma-3 (Homo sapiens) (Q9Y6M4 whole entry, looked up, canonical isoform): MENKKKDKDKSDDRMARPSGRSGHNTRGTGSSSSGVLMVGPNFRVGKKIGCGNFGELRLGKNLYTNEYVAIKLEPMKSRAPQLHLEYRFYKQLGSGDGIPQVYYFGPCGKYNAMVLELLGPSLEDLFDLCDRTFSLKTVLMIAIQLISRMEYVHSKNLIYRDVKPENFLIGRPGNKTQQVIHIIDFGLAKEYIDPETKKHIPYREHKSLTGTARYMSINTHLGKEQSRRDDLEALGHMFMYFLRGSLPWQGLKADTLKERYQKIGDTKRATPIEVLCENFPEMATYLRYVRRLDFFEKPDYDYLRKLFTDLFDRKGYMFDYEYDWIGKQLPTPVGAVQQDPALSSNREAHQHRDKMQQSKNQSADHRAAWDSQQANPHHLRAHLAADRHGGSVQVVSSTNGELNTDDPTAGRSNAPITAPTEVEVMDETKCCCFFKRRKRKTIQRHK
Chain of Serine/threonine-protein kinase 16 (Homo sapiens) (O75716 whole entry): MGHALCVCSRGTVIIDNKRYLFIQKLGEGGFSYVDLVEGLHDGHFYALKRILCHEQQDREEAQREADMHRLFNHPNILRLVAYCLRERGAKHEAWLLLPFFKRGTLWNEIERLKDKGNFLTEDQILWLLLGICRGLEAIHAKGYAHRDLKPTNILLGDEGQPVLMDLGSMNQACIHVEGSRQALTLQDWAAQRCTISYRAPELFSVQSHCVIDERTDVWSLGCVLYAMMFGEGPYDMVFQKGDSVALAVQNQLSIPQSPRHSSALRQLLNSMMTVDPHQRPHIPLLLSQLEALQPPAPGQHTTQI
Chain of Dual specificity protein kinase CLK3 (Homo sapiens) (P49761 whole entry, looked up, canonical isoform): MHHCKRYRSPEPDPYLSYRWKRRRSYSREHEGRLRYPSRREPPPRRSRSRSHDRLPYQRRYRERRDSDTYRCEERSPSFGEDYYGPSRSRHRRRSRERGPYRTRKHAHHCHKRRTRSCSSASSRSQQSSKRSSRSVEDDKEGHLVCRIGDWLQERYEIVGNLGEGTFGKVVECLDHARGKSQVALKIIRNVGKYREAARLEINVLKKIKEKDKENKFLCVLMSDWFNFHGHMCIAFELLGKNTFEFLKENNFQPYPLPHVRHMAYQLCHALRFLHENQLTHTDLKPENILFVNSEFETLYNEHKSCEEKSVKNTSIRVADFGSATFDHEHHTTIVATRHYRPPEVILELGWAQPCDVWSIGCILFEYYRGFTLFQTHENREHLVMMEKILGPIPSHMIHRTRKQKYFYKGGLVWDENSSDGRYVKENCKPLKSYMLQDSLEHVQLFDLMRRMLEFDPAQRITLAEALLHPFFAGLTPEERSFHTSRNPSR
Chain of Cyclin-dependent kinase-like 1 (Homo sapiens) (Q00532 whole entry): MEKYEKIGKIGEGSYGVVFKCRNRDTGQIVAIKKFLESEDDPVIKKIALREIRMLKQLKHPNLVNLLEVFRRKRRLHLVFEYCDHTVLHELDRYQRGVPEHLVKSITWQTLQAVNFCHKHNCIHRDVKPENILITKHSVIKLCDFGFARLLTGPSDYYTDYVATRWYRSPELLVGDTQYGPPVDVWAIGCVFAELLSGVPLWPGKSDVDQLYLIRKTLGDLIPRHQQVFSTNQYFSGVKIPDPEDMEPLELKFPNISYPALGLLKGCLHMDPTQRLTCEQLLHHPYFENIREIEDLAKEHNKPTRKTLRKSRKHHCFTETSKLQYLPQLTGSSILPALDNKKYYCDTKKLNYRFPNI

SMILES	ΔTm [1] [°C]	ΔTm [2] [°C]	ΔTm [3] [°C]	ΔTm [4] [°C]	ΔTm [5] [°C]	ΔTm [6] [°C]	ΔTm [7] [°C]	ΔTm [8] [°C]	ΔTm [9] [°C]	ΔTm [10] [°C]	ΔTm [11] [°C]	ΔTm [12] [°C]	ΔTm [13] [°C]	ΔTm [14] [°C]	ΔTm [15] [°C]	ΔTm [16] [°C]	ΔTm [17] [°C]	ΔTm [18] [°C]
O=C1C=C2C(=Nc3c2c2c(c4c3=NC3=C4CCC=C3)C=NC=2)CC1	0.1	0.8	2.7	6.6	3.1	2.3	0.8	1.2	1.4	4.8	3.8	5.2	2.3	4.4	11.5	3.6	4.7	–
CN1CCC(Nc2ncc3ncnc(Nc4ccc(F)c(Cl)c4)c3n2)CC1 [FALNIDAMOL]	-0.4	0.1	1	3.2	0.5	2.7	0	0	0	6.7	1.5	0.1	0.3	–	–	–	–	–
C[C@@H](N)[C@H]1CC[C@H](C(=O)Nc2ccncc2)CC1	–	-0.1	1	-0.1	2.1	1	0.4	0	-0.1	0.2	1.1	0.6	0.3	–	0.6	0.4	0.5	0.2
CCN(CC)CCNC(=O)c1c(C)[nH]c(/C=C2\C(=O)Nc3ccc(F)cc32)c1C	2.2	6	2.1	0.5	5.1	2.1	–	0.1	–	4.7	3.3	0	1.6	–	3.3	5.6	–	–
CC(C)(C)c1nc2c3ccc(F)cc3c3c(=O)[nH]ccc3c2[nH]1	1.3	4.8	0.4	0.3	4.3	2.4	0.8	3	0.2	4.1	1.2	5.1	11.8	–	3.5	3.7	1.8	0.2
Cn1cc(/C=C2/C(=O)Nc3ccc(S(N)(=O)=O)cc32)c2ccccc21	0.1	1.1	-0.2	0.2	4.7	3.2	0.2	0.2	5.5	5.7	3.7	8.2	6.2	7.8	1.7	3.6	–	–
COc1ccc(COc2ccc(Cc3cnc(N)nc3N)cc2OC)cc1	-0.2	0	0.9	-0.2	-1.5	0.1	0.5	-0.1	1.5	0.9	-0.1	0.2	-0.1	-0.3	0	0.1	–	–
Nc1n[nH]c2nnc(-c3c(-c4ccccc4)nn4ccccc34)cc12	-0.6	0.7	1.7	0.2	0.7	0.3	1.1	4.5	1.3	1	-0.1	0.6	-0.2	3	0	1.9	–	–
Clc1ccc(Nc2nnc(Cc3ccncc3)c3ccccc23)cc1	-0.3	1.9	0.3	0.4	0.1	1.1	-0.2	0.5	1.3	-0.6	-0.1	-0.3	0.4	-0.4	–	–	–	–
N#C/C(=C1/Nc2ccccc2S1)c1ccnc(NCCc2cccnc2)n1	1.8	1.4	3.5	3.1	5.9	4.9	3.4	2.4	2	2	1.3	7.4	5.2	–	5.5	2.2	1.8	0.9
Cc1nc(Nc2ncc(C(=O)Nc3c(C)cccc3Cl)s2)cc(N2CCN(CCO)CC2)n1	-0.3	0.2	-0.1	0.6	0.4	4.1	1.2	0.4	0.9	-0.4	1.6	0	2.5	0.9	–	–	–	–
COc1ccc(CNC(=O)Nc2ncc([N+](=O)[O-])s2)cc1	-0.5	-0.1	0.2	0.3	0.7	0.4	0.6	1	1	-0.3	0.4	0.2	1	–	0.3	0.1	0.6	-0.5
COc1cc2ncnc(Nc3cccc(O)c3)c2cc1OC	0.2	0	-0.2	-0.2	3.8	0.5	0.8	0.8	0.1	–	1	0.6	3.9	0.9	0.4	0.4	0.9	–
